Assay results reported in US9890149B2 (NuBridge BioSciences, priority 2015, dated 2018).

Target: T1, ΔF508 mutant CFTR (Homo sapiens, UniProt P13569, DEL508-508)
T1 construct: expressed in transfected cells; host or cells: Fischer rat thyroid (FRT) cells
Assay: Fluorescence Assay (halide-sensitive YFP, iodide influx) for ΔF508 mutant CFTR activity
Assay type: cell-based
Details: FRT cells expressing ΔF508-CFTR and YFP-H148Q/I152L, incubated 27° C. 20-24 h; forskolin (20 μM) and test compounds (20 μM) for 20 min; rate of fluorescence quenching by I−, normalized to forskolin alone
Text: The ΔF508 mutant CFTR activities of the CFTR modulators are detected using the Fluorescence Assay developed by Pedemonte (Pedemonte N., et al., Antihypertensive 1,4-dihydropyridines as correctors of the cystic fibrosis transmembrane conductance regulator channel gating defect caused by cystic fibrosis mutations, Mol. Pharmacol., 2005, 68, 1736-1746).
Fischer rat thyroid (FRT) cells, stably transfected with ΔF508 were retransfected with the YFP-H148Q/I152L fluorescent protein. The cells were plated (100,000 cells/well) on black 96-well microplates with clear plastic bottom (Corning Life Sciences, Acton, Mass.).
The 96-well microplates containing FRT cells expressing F508-CFTR and the halide-sensitive YFP were incubated at 27° C. for 20 to 24 h to allow rescue of the mutant protein to the plasma membrane. After incubation, cells were washed with PBS (containing 137 mM NaCl, 2.7 mM KCl, 8.1 mM Na2HPO4, 1.5 mM KH2PO4, 1 mM CaCl2, and 0.5 mM MgCl2) and stimulated for 20 min with forskolin (20 μM) and test compounds (20 μM) in a final volume of […] Microplates were then transferred to a microplate reader for CFTR activity determination.

T1 sequence (P13569 with tags, fused parts or gaps DEL508-508): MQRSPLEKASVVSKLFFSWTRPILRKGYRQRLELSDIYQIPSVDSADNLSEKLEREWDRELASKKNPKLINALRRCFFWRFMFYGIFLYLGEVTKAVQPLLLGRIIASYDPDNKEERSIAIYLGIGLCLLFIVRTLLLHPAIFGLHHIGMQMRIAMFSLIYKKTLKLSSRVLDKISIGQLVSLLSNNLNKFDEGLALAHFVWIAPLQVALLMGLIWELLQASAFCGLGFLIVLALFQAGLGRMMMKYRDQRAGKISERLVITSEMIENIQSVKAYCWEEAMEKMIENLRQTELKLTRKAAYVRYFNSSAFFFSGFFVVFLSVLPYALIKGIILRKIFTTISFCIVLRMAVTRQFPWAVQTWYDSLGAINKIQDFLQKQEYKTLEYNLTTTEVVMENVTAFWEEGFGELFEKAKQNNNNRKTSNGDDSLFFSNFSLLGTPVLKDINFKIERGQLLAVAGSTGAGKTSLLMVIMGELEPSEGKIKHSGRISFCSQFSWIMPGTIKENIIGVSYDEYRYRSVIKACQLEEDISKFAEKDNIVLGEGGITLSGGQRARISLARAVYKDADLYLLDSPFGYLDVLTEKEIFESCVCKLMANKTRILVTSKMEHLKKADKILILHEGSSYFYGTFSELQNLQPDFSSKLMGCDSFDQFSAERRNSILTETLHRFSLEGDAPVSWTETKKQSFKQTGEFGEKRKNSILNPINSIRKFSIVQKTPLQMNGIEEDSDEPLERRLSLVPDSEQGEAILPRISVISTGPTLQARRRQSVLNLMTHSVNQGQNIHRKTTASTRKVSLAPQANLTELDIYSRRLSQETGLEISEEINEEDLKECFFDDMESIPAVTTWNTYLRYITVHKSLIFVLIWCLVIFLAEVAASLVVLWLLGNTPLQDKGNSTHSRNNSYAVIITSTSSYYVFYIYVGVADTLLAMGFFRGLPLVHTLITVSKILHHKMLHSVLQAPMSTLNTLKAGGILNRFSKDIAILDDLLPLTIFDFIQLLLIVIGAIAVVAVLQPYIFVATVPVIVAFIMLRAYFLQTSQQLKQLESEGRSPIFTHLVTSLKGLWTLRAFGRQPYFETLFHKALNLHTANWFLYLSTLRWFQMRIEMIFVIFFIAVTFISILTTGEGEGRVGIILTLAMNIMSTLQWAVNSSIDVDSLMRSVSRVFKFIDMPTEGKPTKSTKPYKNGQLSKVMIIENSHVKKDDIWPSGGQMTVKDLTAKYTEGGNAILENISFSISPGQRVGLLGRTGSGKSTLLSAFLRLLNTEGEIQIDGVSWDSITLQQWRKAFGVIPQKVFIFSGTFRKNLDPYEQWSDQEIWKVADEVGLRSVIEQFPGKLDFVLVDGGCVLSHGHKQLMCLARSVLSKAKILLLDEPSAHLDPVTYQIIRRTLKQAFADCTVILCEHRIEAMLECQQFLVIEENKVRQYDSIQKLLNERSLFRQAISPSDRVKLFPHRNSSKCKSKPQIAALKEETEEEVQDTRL

Cl.NCC(CCl)Oc1sncc1NC(=O)c1nc(-c2c(F)cccc2F)c(F)cc1N (centres unmarked) [Example 33, 3-amino-N-(5-((1-amino-3-chloropropan-2-yl)oxy)isothiazol-4-yl)-6-(2,6-difluorophenyl)-5-fluoropicolinamide hydrochloride]
CFTR Activity: 1.6

Cl.NCC(CCl)COc1sncc1NC(=O)c1nc(-c2c(F)cccc2F)c(F)cc1N (centres unmarked) [Example 34, 3-amino-N-(5-(3-amino-2-(chloromethyl)propoxy)isothiazol-4-yl)-6-(2,6-difluorophenyl)-5-fluoropicolinamide hydrochloride]
CFTR Activity: 1.6

Cl.Nc1cc(F)c(-c2c(F)cccc2F)nc1C(=O)Nc1cnsc1OCC1CCCNC1 (centres unmarked) [Example 35, 3-amino-6-(2,6-difluorophenyl)-5-fluoro-N-(5-(piperidin-3-ylmethoxy)isothiazol-4-yl)picolinamide hydrochloride]
CFTR Activity: 1.6

Cl.NCCCCOc1sncc1NC(=O)c1nc(-c2c(F)cccc2F)c(F)cc1N [Example 36, 3-amino-N-(5-(4-aminobutoxy)isothiazol-4-yl)-6-(2,6-difluorophenyl)-5-fluoropicolinamide hydrochloride]
CFTR Activity: 1.8

Cl.Nc1cc(F)c(-c2c(F)cccc2F)nc1C(=O)Nc1cnsc1OC1CCCC(N)C1 (centres unmarked) [Example 37, 3-amino-N-(5-((3-aminocyclohexyl)oxy)isothiazol-4-yl)-6-(2,6-difluorophenyl)-5-fluoropicolinamide hydrochloride]
CFTR Activity: 2.9

Cl.Nc1cc(F)c(-c2ccccc2)nc1C(=O)Nc1cnsc1OC1CCNC1 (centres unmarked) [Example 38, 3-amino-5-fluoro-6-phenyl-N-(5-(pyrrolidin-3-yloxy)isothiazol-4-yl)picolinamide hydrochloride]
CFTR Activity: 1.3

Cl.O=C(Nc1cnsc1OC1CCNCC1)c1ccc(F)c(-c2ccncc2)n1 [Example 39, 3-fluoro-N-(5-(piperidin-4-yloxy)isothiazol-4-yl)-[2,4′-bipyridine]-6-carboxamide hydrochloride]
CFTR Activity: 0.3

Cl.O=C(Nc1cnsc1OC1CCCNCC1)c1nc(-c2c(F)cccc2F)ccc1F (centres unmarked) [Example 40, N-(5-(azepan-4-yloxy)isothiazol-4-yl)-6-(2,6-difluorophenyl)-3-fluoropicolinamide hydrochloride]
CFTR Activity: 1.4

COc1cccc(F)c1-c1nc(C(=O)Nc2cnsc2OC2CCCNCC2)ccc1F.Cl (centres unmarked) [Example 41, N-(5-(azepan-4-yloxy)isothiazol-4-yl)-5-fluoro-6-(2-fluoro-6-methoxyphenyl)picolinamide hydrochloride]
CFTR Activity: 1.6

Cl.O=C(Nc1cnsc1OC1CCCNCC1)c1ccc(C(F)(F)F)c(-c2c(F)cccc2F)n1 (centres unmarked) [Example 42, N-(5-(azepan-4-yloxy)isothiazol-4-yl)-6-(2,6-difluorophenyl)-5-(trifluoromethyl)picolinamide hydrochloride]
CFTR Activity: 0.4

Cl.O=C(Nc1cnsc1OCC1CCNCC1)c1ccc(C(F)(F)F)c(-c2c(F)cccc2F)n1 [Example 43, 6-(2,6-difluorophenyl)-N-(5-(piperidin-4-ylmethoxy)isothiazol-4-yl)-5-(trifluoromethyl)picolinamide hydrochloride]
CFTR Activity: 0.3

Cl.O=C(Nc1cnsc1OCC1CNC1)c1ccc(C(F)(F)F)c(-c2c(F)cccc2F)n1 [Example 44, N-(5-(azetidin-3-ylmethoxy)isothiazol-4-yl)-6-(2,6-difluorophenyl)-5-(trifluoromethyl)picolinamide hydrochloride]
CFTR Activity: 0.3

Cl.O=C(Nc1cnsc1OC1CCNCC1)c1ccc(C(F)(F)F)c(-c2c(F)cccc2F)n1 [Example 45, 6-(2,6-difluorophenyl)-N-(5-(piperidin-4-yloxy)isothiazol-4-yl)-5-(trifluoromethyl)picolinamide hydrochloride]
CFTR Activity: 1.7

Cl.N[C@H]1CC[C@H](Oc2sncc2NC(=O)c2ccc(C(F)(F)F)c(-c3c(F)cccc3F)n2)CC1 [Example 46, N-(5-(((1r,4r)-4-aminocyclohexyl)oxy)isothiazol-4-yl)-6-(2,6-difluorophenyl)-5-(trifluoromethyl)picolinamide hydrochloride]
CFTR Activity: 1

O=C(Nc1cnsc1OCC1CCOCC1)c1ccc(C(F)(F)F)c(-c2c(F)cccc2F)n1 [Example 47]
CFTR Activity: 0.6

Cl.Nc1cc(C(F)(F)F)c(-c2c(F)cccc2F)nc1C(=O)Nc1cnsc1OC1CCCNCC1 (centres unmarked) [Example 48, 3-amino-N-(5-(azepan-4-yloxy)isothiazol-4-yl)-6-(2,6-difluorophenyl)-5-(trifluoromethyl)picolinamide hydrochloride]
CFTR Activity: 0.7

Cl.Nc1cc(C(F)(F)F)c(-c2c(F)cccc2F)nc1C(=O)Nc1cnsc1OCC1CCNCC1 [Example 49, 3-amino-6-(2,6-difluorophenyl)-N-(5-(piperidin-4-ylmethoxy)isothiazol-4-yl)-5-(trifluoromethyl)picolinamide hydrochloride]
CFTR Activity: 0.2

Cl.Nc1cc(C(F)(F)F)c(-c2c(F)cccc2F)nc1C(=O)Nc1cnsc1OCC1CNC1 [Example 50, 3-amino-N-(5-(azetidin-3-ylmethoxy)isothiazol-4-yl)-6-(2,6-difluorophenyl)-5-(trifluoromethyl)picolinamide hydrochloride]
CFTR Activity: 0.1

Cl.Nc1cc(C(F)(F)F)c(-c2c(F)cccc2F)nc1C(=O)Nc1cnsc1OC1CCNCC1 [Example 51, 3-amino-6-(2,6-difluorophenyl)-N-(5-(piperidin-4-yloxy)isothiazol-4-yl)-5-(trifluoromethyl)picolinamide hydrochloride]
CFTR Activity: 0.7

Cl.Nc1cc(C(F)(F)F)c(-c2c(F)cccc2F)nc1C(=O)Nc1cnsc1O[C@H]1CC[C@H](N)CC1 [Example 52, 3-amino-N-(5-(((1r,4r)-4-aminocyclohexyl)oxy)isothiazol-4-yl)-6-(2,6-difluorophenyl)-5-(trifluoromethyl)picolinamide hydrochloride]
CFTR Activity: 4.6

Cl.Nc1cc(C(F)(F)F)c(-c2ccccc2)nc1C(=O)Nc1cnsc1OC1CCNC1 (centres unmarked) [Example 53, 3-amino-6-phenyl-N-(5-(pyrrolidin-3-yloxy)isothiazol-4-yl)-5-(trifluoromethyl)picolinamide hydrochloride]
CFTR Activity: 0.4

Cl.NCC(CCl)COc1sncc1NC(=O)c1ccc(C(F)(F)F)c(-c2c(F)cccc2F)n1 (centres unmarked) [Example 54, N-(5-(3-amino-2-(chloromethyl)propoxy)isothiazol-4-yl)-6-(2,6-difluorophenyl)-5-(trifluoromethyl)picolinamide hydrochloride]
CFTR Activity: 0.5

Cl.NCC(CCl)COc1sncc1NC(=O)c1nc(-c2c(F)cccc2F)c(C(F)(F)F)cc1N (centres unmarked) [Example 55, 3-amino-N-(5-(3-amino-2-(chloromethyl)propoxy)isothiazol-4-yl)-6-(2,6-difluorophenyl)-5-(trifluoromethyl)picolinamide hydrochloride]
CFTR Activity: 0.5

Cl.NCC(CO)COc1sncc1NC(=O)c1ccc(F)c(-c2c(F)cccc2F)n1 (centres unmarked) [Example 56, N-(5-(3-amino-2-(hydroxymethyl)propoxy)isothiazol-4-yl)-6-(2,6-difluorophenyl)-5-fluoropicolinamide hydrochloride]
CFTR Activity: 0.5

Cl.NCC(CO)COc1sncc1NC(=O)c1nc(-c2c(F)cccc2F)c(F)cc1N (centres unmarked) [Example 57, 3-amino-N-(5-(3-amino-2-(hydroxymethyl)propoxy)isothiazol-4-yl)-6-(2,6-difluorophenyl)-5-fluoropicolinamide hydrochloride]
CFTR Activity: 1.8

Cl.NCC(CO)COc1sncc1NC(=O)c1ccc(C(F)(F)F)c(-c2c(F)cccc2F)n1 (centres unmarked) [Example 58, N-(5-(3-amino-2-(hydroxymethyl)propoxy)isothiazol-4-yl)-6-(2,6-difluorophenyl)-5-(trifluoromethyl)picolinamide hydrochloride]
CFTR Activity: 2

Cl.NCC(CO)COc1sncc1NC(=O)c1nc(-c2c(F)cccc2F)c(C(F)(F)F)cc1N (centres unmarked) [Example 59, 3-amino-N-(5-(3-amino-2-(hydroxymethyl)propoxy)isothiazol-4-yl)-6-(2,6-difluorophenyl)-5-(trifluoromethyl)picolinamide hydrochloride]
CFTR Activity: 2.3

Cl.NC1CCCC(Oc2sncc2NC(=O)c2ccc(C(F)(F)F)c(-c3c(F)cccc3F)n2)C1 (centres unmarked) [Example 60, N-(5-((3-aminocyclohexyl)oxy)isothiazol-4-yl)-6-(2,6-difluorophenyl)-5-(trifluoromethyl)picolinamide hydrochloride]
CFTR Activity: 0.1

Cl.Nc1cc(C(F)(F)F)c(-c2c(F)cccc2F)nc1C(=O)Nc1cnsc1OC1CCCC(N)C1 (centres unmarked) [Example 61, 3-amino-N-(5-((3-aminocyclohexyl)oxy)isothiazol-4-yl)-6-(2,6-difluorophenyl)-5-(trifluoromethyl)picolinamide hydrochloride]
CFTR Activity: 0.4
